Tested on: Bovine cardiac myofibrils
Assay: In vitro model of dose-dependent myofibril ATPase modulation (AC1.4, pyruvate kinase/lactate dehydrogenase-coupled ATPase assay at pCa25)
Type: biochemical
Conditions: concentration at which ATPase activity was 1.4-fold higher than the bottom of the dose curve, mean of a minimum of two independent tests
Procedure, shortened: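 Absorbance at 340 nm tracked ATP hydrolysis through pyruvate kinase/lactate dehydrogenase coupling (0.5 mM NADH, 1.5 mM PEP). Myofibrils from detergent-homogenized bovine heart, 1 mM ATP, pH 6.80, EGTA/CaCl2 buffering. Dose-response curves fitted with a four-parameter Hill equation.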

SMILES	AC1.4 [µM]
O=C(NCc1ccc(C(F)(F)F)cc1F)[C@H]1CCCN1C(=O)[C@H]1CCCN(S(=O)(=O)N2CC(O)(C3CC3)C2)C1 [Example 199, 1-(((3S)-1-((3-cyclopropyl-3-hydroxy-1-azetidinyl)sulfonyl)-3-piperidinyl)carbonyl)-N-(2-fluoro-4-(trifluoromethyl)benzyl)-D-prolinamide]	0.4078
CN(C)S(=O)(=O)c1cccc(C(=O)N2CCC[C@@H]2C(=O)N[C@H](c2ccc(C(F)(F)F)cc2F)C2CC2)c1 [Example 802, N-((S)-cyclopropyl(2-fluoro-4-(trifluoromethyl)phenyl)methyl)-1-(3-(dimethylsulfamoyl)benzoyl)-D-prolinamide]	9.6005
N#CC1CN(S(=O)(=O)c2cccc(C(=O)N3C[C@H](F)C[C@@H]3C(=O)NCc3ccc(C(F)(F)F)cc3)c2)C1 [Example 122, (4R)-1-((3-((3-cyano-1-azetidinyl)sulfonyl)phenyl)carbonyl)-4-fluoro-N-(4-(trifluoromethyl)benzyl)-D-prolinamide]	0.1858
CS(=O)(=O)c1cccc(C(=O)N2CCC[C@@H]2C(=O)N[C@@H](c2cc(F)c(C(F)(F)F)cc2F)[C@H]2C[C@@H](O)C2)c1 [Example 827, (R)-N-((R)-(2,5-difluoro-4-(trifluoromethyl)phenyl)((1s,3S)-3-hydroxycyclobutyl)methyl)-1-(3-(methylsulfonyl)benzoyl)pyrrolidine-2-carboxamide]	0.15
CS(=O)(=O)c1cccc(C(=O)N2[C@@H](C(=O)NC(c3ccc(C(F)(F)F)cc3F)C3CNC(=O)C3)C[C@H]3C[C@H]32)c1 (stereo partly drawn) [Example 244, (1R,3R,5R)-N-((2-fluoro-4-(trifluoromethyl)phenyl)(5-oxopyrrolidin-3-yl)methyl)-2-(3-(methylsulfonyl)benzoyl)-2-azabicyclo[3.1.0]hexane-3-carboxamide]	0.5793
CS(=O)(=O)c1cccc(C(=O)N2C[C@@H](F)C[C@@H]2C(=O)N[C@@H](c2cc(F)c(Cl)cc2F)C2COC2)c1 [Example 141, (4S)-N-((R)-(4-chloro-2,5-difluorophenyl)(3-oxetanyl)methyl)-4-fluoro-1-(3-(methylsulfonyl)benzoyl)-D-prolinamide]	0.2366
CCS(=O)(=O)c1cccc(C(=O)N2[C@@H](C(=O)N[C@@H](c3ccc(C(F)(F)F)cc3F)C3(O)CC3)C[C@H]3C[C@H]32)c1 [Example 382, (1R,3R,5R)-2-(3-(ethylsulfonyl)benzoyl)-N-((S)-(2-fluoro-4-(trifluoromethyl)phenyl)(1-hydroxycyclopropyl)methyl)-2-azabicyclo[3.1.0]hexane-3-carboxamide]	1.232
Cc1c(F)cccc1CNC(=O)[C@H]1CCCN1C(=O)[C@H]1CCCN(S(=O)(=O)N2CC(C#N)C2)C1 [Example 288]	0.7452
N#CC1CN(S(=O)(=O)N2CCC[C@H](C(=O)N3CCC[C@@H]3C(=O)NCc3c(F)c(F)cc(F)c3F)C2)C1 [Example 623, 1-(((3S)-1-((3-cyano-1-azetidinyl)sulfonyl)-3-piperidinyl)carbonyl)-N-(2,3,5,6-tetrafluorobenzyl)-D-prolinamide]	3.975
Cc1cnn(C)c1C(=O)N1[C@@H](C(=O)N[C@@H](c2cc(F)c(C(F)(F)F)cc2F)C2COC2)C[C@H]2C[C@H]21 [Example 818, (1R,3R,5R)-N-((R)-(2,5-difluoro-4-(trifluoromethyl)phenyl)(oxetan-3-yl)methyl)-2-(1,4-dimethyl-1H-pyrazole-5-carbonyl)-2-azabicyclo[3.1.0]hexane-3-carboxamide]	4.155
COc1ccc(CNC(=O)[C@H]2CCCN2C(=O)[C@H]2CCCN(S(=O)(=O)N3CC(C#N)C3)C2)cc1Cl [Example 591, N-(3-chloro-4-methoxybenzyl)-1-(((3S)-1-((3-cyano-1-azetidinyl)sulfonyl)-3-piperidinyl)carbonyl)-D-prolinamide]	3.476
CN(C)S(=O)(=O)c1cccc(C(=O)N2CCC[C@@H]2C(=O)N[C@H](CO)c2ccc(Cl)c(F)c2)c1 [Example 634, N-((1S)-1-(4-chloro-3-fluorophenyl)-2-hydroxyethyl)-1-(3-(dimethylsulfamoyl)benzoyl)-D-prolinamide]	4.1045
C[C@H](C(=O)N[C@H](C)c1ccc(C(F)(F)F)cc1F)N(C)C(=O)[C@H]1CCCN(S(=O)(=O)N2CC(C#N)C2)C1 [Example 209, (3S)-1-((3-cyano-1-azetidinyl)sulfonyl)-N-((2R)-1-(((1R)-1-(2-fluoro-4-(trifluoromethyl)phenyl)ethyl)amino)-1-oxo-2-propanyl)-N-methyl-3-piperidinecarboxamide]	0.4473
N#CC1CN(S(=O)(=O)N2CCC[C@H](C(=O)N3C[C@@H](F)C[C@@H]3C(=O)NCc3ccc(C(F)(F)F)cc3)C2)C1 [Example 56, (4S)-1-(((3S)-1-((3-cyano-1-azetidinyl)sulfonyl)-3-piperidinyl)carbonyl)-4-fluoro-N-(4-(trifluoromethyl)benzyl)-D-prolinamide]	0.06215
Cc1c(CNC(=O)[C@H]2CCCN2C(=O)[C@H]2CCCN(S(=O)(=O)N3CC(C#N)C3)C2)cccc1C(F)(F)F [Example 145, 1-(((3S)-1-((3-cyano-1-azetidinyl)sulfonyl)-3-piperidinyl)carbonyl)-N-(2-methyl-3-(trifluoromethyl)benzyl)-D-prolinamide]	0.2465
CC(O)C(NC(=O)[C@H]1C[C@H]2C[C@H]2N1C(=O)c1cccc(S(C)(=O)=O)c1)c1cc(F)c(Cl)cc1F (stereo partly drawn) [Example 757, (1R,3R,5R)-N-(1-(4-chloro-2,5-difluorophenyl)-2-hydroxypropyl)-2-(3-(methylsulfonyl)benzoyl)-2-azabicyclo[3.1.0]hexane-3-carboxamide]	7.6005
O=C(NCc1ccc(C(F)(F)F)nc1)[C@H]1CCCCN1C(=O)c1cccc(S(=O)(=O)N2CC(F)(F)C2)c1 [Example 798, (2R)-1-((3-((3,3-difluoro-1-azetidinyl)sulfonyl)phenyl)carbonyl)-N-((6-(trifluoromethyl)-3-pyridinyl)methyl)-2-piperidinecarboxamide]	9.448
Cc1cc(C(=O)N2[C@@H](C(=O)N[C@@H](c3cc(F)c(Cl)cc3F)C3COC3)C[C@H]3C[C@H]32)cc(S(C)(=O)=O)c1 [Example 140, (1R,3R,5R)-N-((R)-(4-chloro-2,5-difluorophenyl)(3-oxetanyl)methyl)-2-(3-methyl-5-(methylsulfonyl)benzoyl)-2-azabicyclo[3.1.0]hexane-3-carboxamide]	0.2351
CS(=O)(=O)c1ccnc(C(=O)N2C[C@@H](F)C[C@@H]2C(=O)N[C@@H](c2cc(F)c(Cl)cc2F)C2CC2)c1 [Example 269, (4S)-N-((R)-(4-chloro-2,5-difluorophenyl)(cyclopropyl)methyl)-4-fluoro-1-((4-(methylsulfonyl)-2-pyridinyl)carbonyl)-D-prolinamide]	0.6767
CS(=O)(=O)c1cccc(C(=O)N2[C@@H](C(=O)N[C@@H](c3cc(F)c(Cl)c(F)c3)C3CC3)C[C@H]3C[C@H]32)c1 [Example 278, (1R,3R,5R)-N-((R)-(4-chloro-3,5-difluorophenyl)(cyclopropyl)methyl)-2-(3-(methylsulfonyl)benzoyl)-2-azabicyclo[3.1.0]hexane-3-carboxamide]	0.7012
Cc1ccc([C@H](NC(=O)[C@H]2C[C@H]3C[C@H]3N2C(=O)c2cccc(S(C)(=O)=O)c2)C2CC2)cc1F [Example 810, (1R,3R,5R)-N-((R)-cyclopropyl(3-fluoro-4-methylphenyl)methyl)-2-(3-(methylsulfonyl)benzoyl)-2-azabicyclo[3.1.0]hexane-3-carboxamide]	5.084
N#CC1CN(S(=O)(=O)N2CCC[C@H](C(=O)N3CCC[C@@H]3C(=O)N[C@H](CO)c3ccc(C(F)(F)F)cc3)C2)C1 [Example 88, 1-(((3S)-1-((3-cyano-1-azetidinyl)sulfonyl)-3-piperidinyl)carbonyl)-N-((1S)-2-hydroxy-1-(4-(trifluoromethyl)phenyl)ethyl)-D-prolinamide]	0.1344
CS(=O)(=O)C1CN(S(=O)(=O)N2CCC[C@H](C(=O)N3CCC[C@@H]3C(=O)NCc3ccc(C(F)(F)F)cn3)C2)C1 [Example 499, 1-(((3S)-1-((3-(methylsulfonyl)-1-azetidinyl)sulfonyl)-3-piperidinyl)carbonyl)-N-((5-(trifluoromethyl)-2-pyridinyl)methyl)-D-prolinamide]	2.344
N#CC1CN(S(=O)(=O)c2cccc(C(=O)N3CCC[C@@H]3C(=O)NCc3ccc(Cl)cc3)c2)C1 [Example 43, N-(4-chlorobenzyl)-1-((3-((3-cyano-1-azetidinyl)sulfonyl)phenyl)carbonyl)-D-prolinamide]	0.04337
CS(=O)(=O)N1CC(F)(c2cccc(C(=O)N3[C@@H](C(=O)N[C@@H](c4ccc(C(F)(F)F)cc4F)C4CC4)C[C@H]4C[C@H]43)c2)C1 [Example 422, (1R,3R,5R)-N-((R)-cyclopropyl(2-fluoro-4-(trifluoromethyl)phenyl)methyl)-2-(3-(3-fluoro-1-(methylsulfonyl)-3-azetidinyl)benzoyl)-2-azabicyclo[3.1.0]hexane-3-carboxamide]	1.5655
N#CC1CN(S(=O)(=O)N2CCO[C@H](C(=O)N3CCC[C@@H]3C(=O)NCc3ccc(C(F)(F)F)cc3F)C2)C1 [Example 116]	0.179
N#CC1CN(S(=O)(=O)N2CCC[C@H](C(=O)N3CCC[C@@H]3C(=O)N[C@H](CC(F)(F)F)c3ccc(C(F)(F)F)cc3)C2)C1 [Example 28, 1-(((3S)-1-((3-cyano-1-azetidinyl)sulfonyl)-3-piperidinyl)carbonyl)-N-((1R)-3,3,3-trifluoro-1-(4-(trifluoromethyl)phenyl)propyl)-D-prolinamide]	0.03125
